11 molecules from ChEMBL document CHEMBL1201862, “PubChem BioAssay data set” (2004) can be followed below.

Some test systems named below: MDA-MB-231; DU-145; RXF 393; OVCAR-3; NCI-H226; 786-0; SR; HT-29; SK-OV-3; SF-268; HOP-62; KM12; CCRF-CEM; NCI/ADR-RES; BT-549; T47D; NCI-H23; CAKI-1; HCC 2998.
Assay in all cases: DTP human tumour cell line panel, 48 h

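Growth conditions: 96-well plates. Treatment: test compound, 48 hours, 5 concentrations. Analysis: linear interpolation between bracketing concentrations; unreached endpoints set to highest concentration. Here, GI50 denotes the concentration required for 50% inhibition of growth.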 Calls of active or inactive are those of the source. Cut-off read from the data, not from the text of the source: active = GI50 up to about 1.1 µM and inactive = higher.

For the molecule `O=S(=O)(O)c1c(/N=N/c2c(O)ccc3ccccc23)ccc2ccccc12`, the GI50 was > 100 µM (inactive) in the assay on MDA-MB-231; > 100 µM (inactive) in the assay on DU-145; > 100 µM (inactive) in the assay with RXF 393; > 100 µM (inactive) in the assay with OVCAR-3; 19.4 µM (inactive) in the assay with NCI-H226; > 100 µM (inactive) with 786-0. In addition, the GI50 in the assay on SR was > 100 µM (inactive); in the assay with HT-29, > 100 µM (inactive); with SK-OV-3, 79.8 µM (inactive); in the assay with SF-268, 51.4 µM (inactive); with HOP-62, > 100 µM (inactive); with KM12, > 100 µM (inactive). Besides, the GI50 in the assay with CCRF-CEM was 48.4 µM (inactive); in the assay with NCI/ADR-RES, > 100 µM (inactive); in the assay with BT-549 it was > 100 µM (inactive); with T47D, > 100 µM (inactive); with NCI-H23 it was > 100 µM (inactive); in the assay with CAKI-1, > 100 µM (inactive).
`Cc1nc2cc([N+](=O)[O-])ccc2c(NCCCN(C)C)c1C`: the GI50 in the assay on MDA-MB-231 is 3.34 µM (inactive); with DU-145, 21.7 µM (inactive); with RXF 393, 11.1 µM (inactive); with OVCAR-3, 6.31 µM (inactive); in the assay on NCI-H226, 5.08 µM (inactive); in the assay on 786-0, 10.4 µM (inactive). In addition, the GI50 was 4.45 µM (inactive) with SR; 2.76 µM (inactive) in the assay with HT-29; 31.5 µM (inactive) in the assay on SK-OV-3; 20.3 µM (inactive) in the assay on SF-268; 10.9 µM (inactive) with HOP-62; 6.05 µM (inactive) in the assay with KM12. Besides, the GI50 with CCRF-CEM is 28.9 µM (inactive); in the assay with NCI/ADR-RES it was 16.3 µM (inactive); in the assay with BT-549 it was 11.8 µM (inactive); in the assay with T47D, 4.09 µM (inactive); with NCI-H23, 4.03 µM (inactive); in the assay on CAKI-1, 20.3 µM (inactive).
Turning to `CN(C(=O)OC(C)(C)C)[C@H]1CCCC[C@H]1N1CCCC1`, the GI50 in the assay with MDA-MB-231, in the assay with DU-145, in the assay on OVCAR-3, in the assay with NCI-H226, with 786-0 and in the assay on SR was > 100 µM (inactive) in each case. The GI50 was > 100 µM (inactive) in the assay with HT-29; > 100 µM (inactive) in the assay on SK-OV-3; > 100 µM (inactive) in the assay on SF-268; > 100 µM (inactive) with HOP-62; > 100 µM (inactive) in the assay with KM12; 0.0129 µM (active) in the assay on CCRF-CEM. Further, the GI50 with NCI/ADR-RES, with BT-549, in the assay with T47D, with NCI-H23 and with CAKI-1 was > 100 µM (inactive) throughout.
`Cc1nc2c(=O)n(C)ncc2[nH]1`: the GI50 with MDA-MB-231, in the assay with DU-145, in the assay on RXF 393, in the assay on OVCAR-3, in the assay on NCI-H226 and in the assay on 786-0 was > 100 µM (inactive) throughout. For the same molecule, the GI50 with SR, in the assay on HT-29, with SF-268, in the assay on HOP-62, in the assay on KM12 and with CCRF-CEM was > 100 µM (inactive) throughout. Besides, the GI50 in the assay on NCI/ADR-RES, in the assay on BT-549, with T47D, in the assay on NCI-H23 and in the assay on CAKI-1 was > 100 µM (inactive) in each case.
`CS(=O)(=O)Nc1ccc(Nc2ccnc3ccc4[nH]ccc4c23)cc1`: the GI50 in the assay on MDA-MB-231 is 8.93 µM (inactive); with DU-145, 9.93 µM (inactive); in the assay with RXF 393, 14 µM (inactive); in the assay with OVCAR-3 it was 10.3 µM (inactive); with HCC 2998 it was 4.98 µM (inactive); in the assay on NCI-H226, 8.49 µM (inactive). Further, the GI50 was 9.64 µM (inactive) in the assay with 786-0; 18.4 µM (inactive) in the assay on HT-29; 19.5 µM (inactive) in the assay with SK-OV-3; 5.13 µM (inactive) in the assay on SF-268; 13.9 µM (inactive) in the assay on HOP-62; 11.6 µM (inactive) in the assay with KM12. Also, the GI50 with CCRF-CEM is 4.35 µM (inactive); in the assay with NCI/ADR-RES, > 100 µM (inactive); in the assay with BT-549, 19.7 µM (inactive); in the assay on T47D, 3.77 µM (inactive); in the assay on NCI-H23 it was 16.3 µM (inactive); in the assay on CAKI-1 it was 27.7 µM (inactive).
Turning to `CSCCC(NC(=O)Cc1ccc(C(=O)c2ccccc2)cc1)C(=O)O` (stereo not given), the GI50 with MDA-MB-231, in the assay with DU-145, in the assay with RXF 393, with OVCAR-3, in the assay on HCC 2998 and in the assay with NCI-H226 was > 100 µM (inactive) in each case. For the same molecule, the GI50 in the assay with 786-0, in the assay on HT-29, in the assay with SK-OV-3, with SF-268, in the assay on HOP-62 and in the assay on KM12 was > 100 µM (inactive) each time. The GI50 with CCRF-CEM, in the assay with NCI/ADR-RES, in the assay on BT-549, with T47D, in the assay on NCI-H23 and in the assay with CAKI-1 was > 100 µM (inactive) throughout.
`O=C(O)COc1cc(-c2ccccc2)nc2cc(F)ccc12`: the GI50 in the assay on MDA-MB-231 was > 100 µM (inactive); in the assay with DU-145, > 100 µM (inactive); in the assay on OVCAR-3 it was > 100 µM (inactive); with HCC 2998, 60 µM (inactive); in the assay with NCI-H226, > 100 µM (inactive); with 786-0 it was > 100 µM (inactive). Also, the GI50 in the assay on SR, in the assay with HT-29, in the assay on SK-OV-3, in the assay on SF-268, with HOP-62 and with KM12 was > 100 µM (inactive) throughout. Moreover, the GI50 in the assay on CCRF-CEM, with NCI/ADR-RES, with BT-549, in the assay with T47D, with NCI-H23 and in the assay with CAKI-1 was > 100 µM (inactive) each time.
In the case of `Cc1ncc([N+](=O)[O-])n1CCNS(=O)(=O)CCCn1ncnc1[N+](=O)[O-]`, the GI50 in the assay with MDA-MB-231, with DU-145, in the assay on RXF 393, in the assay on OVCAR-3, in the assay with NCI-H226 and with 786-0 was > 100 µM (inactive) each time. Also, the GI50 with SR, in the assay on HT-29, in the assay on SK-OV-3, with SF-268, in the assay on HOP-62 and in the assay with KM12 was > 100 µM (inactive) each time. Moreover, the GI50 in the assay on CCRF-CEM, in the assay with NCI/ADR-RES, in the assay with BT-549, with T47D, in the assay on NCI-H23 and in the assay on CAKI-1 was > 100 µM (inactive) each time.
Regarding `CCOc1ccncc1[N+](=O)[O-]`, the GI50 in the assay on MDA-MB-231, with DU-145, with RXF 393, in the assay with NCI-H226, with 786-0 and in the assay with SR was > 100 µM (inactive) throughout. The GI50 in the assay with HT-29, in the assay with SK-OV-3, in the assay on SF-268, in the assay on HOP-62, in the assay on KM12 and with CCRF-CEM was > 100 µM (inactive) in each case. In addition, the GI50 in the assay with NCI/ADR-RES, in the assay on BT-549, with T47D, with NCI-H23 and in the assay on CAKI-1 was > 100 µM (inactive) each time.
On to `C[C@@H]1CC[C@@]2(OC1)O[C@H]1[C@@H](O)[C@H]3[C@@H]4CC[C@H]5C[C@@H](O[C@@H]6O[C@H](CO)[C@H](O[C@@H]7O[C@H](CO)C(O)[C@H](O[C@@H]8OC[C@@H](O)[C@H](O)[C@H]8O)[C@H]7O[C@@H]7O[C@H](CO)[C@H](O)[C@H](O[C@@H]8O[C@H](CO)[C@@H](O)[C@H](O)[C@H]8O)[C@H]7O)[C@H](O)[C@H]6O)[C@H](O)C[C@]5(C)[C@H]4CC[C@]3(C)[C@H]1[C@@H]2C` (stereo not given in full) [DIGITONIN], for which the GI50 with MDA-MB-231 was 2.48 µM (inactive); in the assay with DU-145 it was 2.05 µM (inactive); in the assay on OVCAR-3 it was 1.55 µM (inactive); in the assay on HCC 2998 it was 1.66 µM (inactive); in the assay with NCI-H226, 1.51 µM (inactive); in the assay on 786-0, 1.61 µM (inactive). The GI50 in the assay with SR was 2.37 µM (inactive); in the assay with HT-29, 3.51 µM (inactive); with SK-OV-3, 2.36 µM (inactive); with SF-268, 2.09 µM (inactive); in the assay on HOP-62 it was 2.37 µM (inactive); in the assay with KM12 it was 2.12 µM (inactive). For the same molecule, the GI50 with CCRF-CEM is 2.86 µM (inactive); in the assay on NCI/ADR-RES, 3.89 µM (inactive); with BT-549, 1.63 µM (inactive); in the assay on T47D, 3 µM (inactive); with NCI-H23, 2.26 µM (inactive); with CAKI-1, 1.39 µM (inactive).
On to `O=C1c2ccccc2/C(=N\c2ccc3ccccc3c2)C1(C1=C(c2ccccc2)/C(=N/c2ccc3ccccc3c2)c2ccccc21)c1ccccc1` (stereo not given), for which the GI50 with MDA-MB-231 is 15.3 µM (inactive); in the assay on DU-145 it was 5.57 µM (inactive); with RXF 393, > 24 µM (inactive); with OVCAR-3, 73.3 µM (inactive); in the assay on HCC 2998 it was 11.5 µM (inactive); in the assay with NCI-H226, 7.21 µM (inactive). Besides, the GI50 in the assay with 786-0 was 4.8 µM (inactive); in the assay on HT-29 it was 3.48 µM (inactive); with SK-OV-3 it was 22.1 µM (inactive); in the assay on SF-268 it was 4.16 µM (inactive); in the assay with HOP-62, 12.5 µM (inactive); with KM12 it was 4.14 µM (inactive). Also, the GI50 with CCRF-CEM is 11.2 µM (inactive); with NCI/ADR-RES it was 6.01 µM (inactive); in the assay with BT-549, 5.62 µM (inactive); with T47D it was 5.5 µM (inactive); in the assay with NCI-H23 it was 4.09 µM (inactive); in the assay with CAKI-1, 7.53 µM (inactive).

By GI50 is commonly meant the concentration that inhibits growth by half.
